{"source": "patent US20060141496A1", "about": "“Method of screening substance interacting with ABC protein” (priority 2003, published 2006)"}
{"target": "T1, human MRP2 (Homo sapiens, UniProt Q92887)", "T1 construct": "made in house; host or cells: Sf9 insect cells (baculovirus, pFASTBac1)", "T1 sequence (Q92887 whole entry)": "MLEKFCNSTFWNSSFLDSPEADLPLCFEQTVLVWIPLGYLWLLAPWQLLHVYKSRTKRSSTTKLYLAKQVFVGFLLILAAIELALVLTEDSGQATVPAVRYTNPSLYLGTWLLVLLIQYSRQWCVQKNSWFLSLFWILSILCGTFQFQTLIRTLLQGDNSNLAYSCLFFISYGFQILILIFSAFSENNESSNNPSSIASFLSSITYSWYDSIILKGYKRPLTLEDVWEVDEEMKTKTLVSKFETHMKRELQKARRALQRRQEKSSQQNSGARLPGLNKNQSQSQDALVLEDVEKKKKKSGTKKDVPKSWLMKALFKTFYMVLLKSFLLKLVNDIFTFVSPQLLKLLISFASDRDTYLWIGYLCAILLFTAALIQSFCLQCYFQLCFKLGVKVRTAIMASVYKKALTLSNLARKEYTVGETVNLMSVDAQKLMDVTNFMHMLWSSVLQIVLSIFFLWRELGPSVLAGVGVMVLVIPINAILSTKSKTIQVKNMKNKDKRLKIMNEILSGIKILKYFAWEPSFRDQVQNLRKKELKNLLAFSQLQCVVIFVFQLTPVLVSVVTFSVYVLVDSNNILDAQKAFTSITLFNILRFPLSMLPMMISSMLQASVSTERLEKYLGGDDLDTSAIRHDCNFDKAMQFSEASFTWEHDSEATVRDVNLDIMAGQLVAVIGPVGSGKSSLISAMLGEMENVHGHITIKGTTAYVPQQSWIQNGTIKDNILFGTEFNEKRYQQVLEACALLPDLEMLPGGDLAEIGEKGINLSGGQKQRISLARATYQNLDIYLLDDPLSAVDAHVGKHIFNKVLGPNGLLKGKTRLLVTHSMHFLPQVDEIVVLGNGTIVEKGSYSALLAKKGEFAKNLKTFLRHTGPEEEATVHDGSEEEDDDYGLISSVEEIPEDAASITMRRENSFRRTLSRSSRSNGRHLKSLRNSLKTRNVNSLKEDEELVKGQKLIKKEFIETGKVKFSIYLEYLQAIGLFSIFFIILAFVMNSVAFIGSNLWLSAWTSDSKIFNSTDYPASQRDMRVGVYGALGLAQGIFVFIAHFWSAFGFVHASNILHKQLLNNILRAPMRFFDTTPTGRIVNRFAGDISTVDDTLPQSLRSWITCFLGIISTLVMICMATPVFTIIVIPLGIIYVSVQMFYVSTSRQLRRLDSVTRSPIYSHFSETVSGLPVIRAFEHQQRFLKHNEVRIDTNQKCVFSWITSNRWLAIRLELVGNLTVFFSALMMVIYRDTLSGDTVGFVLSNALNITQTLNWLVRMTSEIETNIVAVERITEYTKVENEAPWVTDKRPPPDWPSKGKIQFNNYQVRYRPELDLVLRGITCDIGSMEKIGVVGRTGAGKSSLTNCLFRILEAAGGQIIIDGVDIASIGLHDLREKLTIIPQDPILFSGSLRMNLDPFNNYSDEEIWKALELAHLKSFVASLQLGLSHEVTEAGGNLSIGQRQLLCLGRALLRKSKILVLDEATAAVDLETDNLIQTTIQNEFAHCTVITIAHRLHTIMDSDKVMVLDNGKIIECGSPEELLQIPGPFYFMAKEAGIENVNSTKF", "assay": "[3H] ADP binding amount by vanadate method, human MRP2-expressing Sf9 membrane", "type": "biochemical", "settings": "substrate 0.1 mM; reaction time 5 minutes; 37° C.; FIG. 6"}
{"compound": "O=C1OC(c2ccc(O)c(S(=O)(=O)O)c2)(c2ccc(O)c(S(=O)(=O)O)c2)c2c(Br)c(Br)c(Br)c(Br)c21", "note": "[Bromosulfalein]", "[3H] ADP binding activity compared to MRP2-expressing membranes without substrate": "increase of significant [^3H] ADP binding activity"}
{"compound": "β-estradiol-17-(β-D-glucuronide) [β-estradiol-17 (β-D-glucuronide)]", "[3H] ADP binding activity compared to MRP2-expressing membranes without substrate": "increase of significant [^3H] ADP binding activity"}
{"target": "T2, human P-glycoprotein (Pgp or MDR 1) expressing membrane (Homo sapiens, UniProt P08183)", "T2 construct": "purchased Daiichi Pure Chemicals Co. No. 453228; host or cells: Sf9 insect cell membrane", "T2 sequence (P08183 whole entry)": "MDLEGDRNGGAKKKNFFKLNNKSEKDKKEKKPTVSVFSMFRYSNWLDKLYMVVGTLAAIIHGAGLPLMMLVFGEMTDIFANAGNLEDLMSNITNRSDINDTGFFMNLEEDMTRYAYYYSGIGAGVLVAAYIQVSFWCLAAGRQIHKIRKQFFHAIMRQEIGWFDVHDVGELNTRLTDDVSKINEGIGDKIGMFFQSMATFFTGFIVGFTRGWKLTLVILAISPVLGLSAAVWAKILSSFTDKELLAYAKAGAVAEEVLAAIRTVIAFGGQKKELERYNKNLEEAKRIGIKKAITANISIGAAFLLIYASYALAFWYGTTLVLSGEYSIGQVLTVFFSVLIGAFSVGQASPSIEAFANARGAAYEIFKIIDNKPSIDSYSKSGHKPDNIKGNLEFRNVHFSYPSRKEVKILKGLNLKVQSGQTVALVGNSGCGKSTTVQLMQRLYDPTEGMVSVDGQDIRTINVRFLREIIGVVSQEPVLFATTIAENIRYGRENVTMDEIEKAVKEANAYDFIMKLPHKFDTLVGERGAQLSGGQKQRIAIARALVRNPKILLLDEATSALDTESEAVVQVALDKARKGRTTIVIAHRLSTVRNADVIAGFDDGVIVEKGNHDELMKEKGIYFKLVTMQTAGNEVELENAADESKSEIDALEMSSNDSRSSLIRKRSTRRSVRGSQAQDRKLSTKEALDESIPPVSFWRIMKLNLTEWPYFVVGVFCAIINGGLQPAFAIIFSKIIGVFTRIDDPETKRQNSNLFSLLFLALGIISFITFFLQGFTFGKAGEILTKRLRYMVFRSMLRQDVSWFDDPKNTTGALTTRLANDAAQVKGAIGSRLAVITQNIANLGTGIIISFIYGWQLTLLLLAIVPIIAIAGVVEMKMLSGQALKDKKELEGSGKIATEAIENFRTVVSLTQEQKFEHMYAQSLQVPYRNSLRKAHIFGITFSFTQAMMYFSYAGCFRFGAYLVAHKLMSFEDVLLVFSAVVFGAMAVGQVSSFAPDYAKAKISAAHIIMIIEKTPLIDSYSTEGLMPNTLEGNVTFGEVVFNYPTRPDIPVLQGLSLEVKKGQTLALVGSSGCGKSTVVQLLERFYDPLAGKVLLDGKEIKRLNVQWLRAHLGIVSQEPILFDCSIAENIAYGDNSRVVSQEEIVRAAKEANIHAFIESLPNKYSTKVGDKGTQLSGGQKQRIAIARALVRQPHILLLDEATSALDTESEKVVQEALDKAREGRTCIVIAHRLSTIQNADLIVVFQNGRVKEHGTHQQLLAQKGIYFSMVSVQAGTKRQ", "assay": "[3H] ADP binding amount by vanadate method, suction cleaning on 96-well glass filter, P-glycoprotein-expressing membrane", "type": "biochemical", "settings": "substrate 0.05 mM; reaction time 5 minutes; 37° C.; background of control membrane subtracted; FIG. 4"}
{"compound": "O=C1OC(c2ccc(O)c(S(=O)(=O)O)c2)(c2ccc(O)c(S(=O)(=O)O)c2)c2c(Br)c(Br)c(Br)c(Br)c21", "note": "[Bromosulfalein]", "[3H] ADP binding activity compared to P-glycoprotein-expressing membrane without substrate": "lowered significantly"}
{"compound": "COc1cccc2c1C(=O)c1c(O)c3c(c(O)c1C2=O)C[C@@](O)(C(C)=O)C[C@@H]3O[C@H]1C[C@H](N)[C@H](O)[C@H](C)O1", "note": "[Daunorubicin]", "[3H] ADP binding activity compared to P-glycoprotein-expressing membrane without substrate": "significant increase"}
{"compound": "COc1cccc2c1C(=O)c1c(O)c3c(c(O)c1C2=O)C[C@@](O)(C(=O)CO)C[C@@H]3O[C@H]1C[C@H](N)[C@H](O)[C@H](C)O1", "note": "[Doxorubicin]", "[3H] ADP binding activity compared to P-glycoprotein-expressing membrane without substrate": "significant increase"}
{"compound": "Nc1nc2ncc(CNc3ccc(C(=O)N[C@@H](CCC(=O)O)C(=O)O)cc3)nc2c(=O)[nH]1", "note": "[Folate]", "[3H] ADP binding activity compared to P-glycoprotein-expressing membrane without substrate": "significant increase"}
{"compound": "CN(Cc1cnc2nc(N)nc(N)c2n1)c1ccc(C(=O)N[C@@H](CCC(=O)O)C(=O)O)cc1", "note": "[Methotrexate]", "[3H] ADP binding activity compared to P-glycoprotein-expressing membrane without substrate": "significant increase"}
{"compound": "CC[C@]1(O)C[C@@H]2CN(CCc3c([nH]c4ccccc34)[C@@](C(=O)OC)(c3cc4c(cc3OC)N(C)[C@H]3[C@@](O)(C(=O)OC)[C@H](OC(C)=O)[C@]5(CC)C=CCN6CC[C@]43[C@@H]65)C2)C1", "note": "[Vinbrastine]", "[3H] ADP binding activity compared to P-glycoprotein-expressing membrane without substrate": "significant increase"}
{"compound": "CC[C@]1(O)C[C@H]2CN(CCc3c([nH]c4ccccc34)[C@@](C(=O)OC)(c3cc4c(cc3OC)N(C=O)[C@H]3[C@@](O)(C(=O)OC)[C@H](OC(C)=O)[C@]5(CC)C=CCN6CC[C@]43[C@@H]65)C2)C1", "note": "[Vincristine]", "[3H] ADP binding activity compared to P-glycoprotein-expressing membrane without substrate": "significant increase"}
